Test: Effect of alkalinizing agents on the pH of a solution of 0.1 N HCl with a starting pH of 2.0
Type: physicochemical
Protocol: Various alkalinizing agents were added to a solution of 0.1 N HCl with a starting pH of 2.0 and the pH of the solution was tested at different time points.

SMILES: [Mg+2].[OH-].[OH-] [magnesium hydroxide]
- pH (60 mg per 320 mL, 2 min): 2.29
- pH (60 mg per 320 mL, 3 min): 2.41
- pH (60 mg per 320 mL, 4 min): 2.47
- pH (60 mg per 320 mL, 5 min): 2.48
- pH (60 mg per 320 mL, 6 min): 2.48
- pH (60 mg per 320 mL, 7 min): 2.49
- pH (60 mg per 320 mL, 8 min): 2.49
- pH (60 mg per 320 mL, 9 min): 2.49
- pH (60 mg per 320 mL, 10 min): 2.49
- pH (60 mg per 320 mL, 20 min): 2.50
- pH (60 mg per 500 mL, 2 min): 2.12
- pH (60 mg per 500 mL, 3 min): 2.17
- pH (60 mg per 500 mL, 4 min): 2.18
- pH (60 mg per 500 mL, 5 min): 2.19
- pH (60 mg per 500 mL, 6 min): 2.19
- pH (60 mg per 500 mL, 7 min): 2.19
- pH (60 mg per 500 mL, 8 min): 2.19
- pH (60 mg per 500 mL, 9 min): 2.19
- pH (60 mg per 500 mL, 10 min): 2.19
- pH (60 mg per 500 mL, 20 min): 2.19
- effect on pH of the solution (71 mg/200 ml, 81 mg/200 ml and 100 mg/200 ml): raised the pH of the solution to neutral or higher
- pH (90 mg per 320 mL, 2 min): 2.37
- pH (90 mg per 320 mL, 3 min): 2.55
- pH (90 mg per 320 mL, 4 min): 2.77
- pH (90 mg per 320 mL, 5 min): 3.06
- pH (90 mg per 320 mL, 6 min): 3.13
- pH (90 mg per 320 mL, 7 min): 3.22
- pH (90 mg per 320 mL, 8 min): 3.28
- pH (90 mg per 320 mL, 9 min): 3.31
- pH (90 mg per 320 mL, 10 min): 3.33
- pH (90 mg per 320 mL, 20 min): 3.34
- pH (100 mg per 320 mL, 2 min): 2.36
- pH (100 mg per 320 mL, 3 min): 2.53
- pH (100 mg per 320 mL, 4 min): 2.74
- pH (100 mg per 320 mL, 5 min): 3.07
- pH (100 mg per 320 mL, 6 min): 3.39
- pH (100 mg per 320 mL, 7 min): 3.73
- pH (100 mg per 320 mL, 8 min): 4.26
- pH (100 mg per 320 mL, 9 min): 5.41
- pH (100 mg per 320 mL, 10 min): 5.86
- pH (100 mg per 320 mL, 20 min): 6.51
- pH (100 mg per 500 mL, 2 min): 2.21
- pH (100 mg per 500 mL, 3 min): 2.33
- pH (100 mg per 500 mL, 4 min): 2.38
- pH (100 mg per 500 mL, 5 min): 2.40
- pH (100 mg per 500 mL, 6 min): 2.40
- pH (100 mg per 500 mL, 7 min): 2.41
- pH (100 mg per 500 mL, 8 min): 2.41
- pH (100 mg per 500 mL, 9 min): 2.41
- pH (100 mg per 500 mL, 10 min): 2.41
- pH (100 mg per 500 mL, 20 min): 2.41
- effect on pH of the solution (100 mg/320 ml, 180 mg/500 ml, 120 mg/320 ml, 200 mg/500 ml and 240 mg/500 ml): rapidly raised the pH of the solution to neutral or higher
- pH (120 mg per 320 mL, 2 min): 2.49
- pH (120 mg per 320 mL, 3 min): 2.87
- pH (120 mg per 320 mL, 4 min): 3.54
- pH (120 mg per 320 mL, 5 min): 5.75
- pH (120 mg per 320 mL, 6 min): 6.65
- pH (120 mg per 320 mL, 7 min): 7.81
- pH (120 mg per 320 mL, 8 min): 8.55
- pH (120 mg per 320 mL, 9 min): 8.83
- pH (120 mg per 320 mL, 10 min): 8.94
- pH (120 mg per 320 mL, 20 min): 9.20
- pH (120 mg per 500 mL, 2 min): 2.21
- pH (120 mg per 500 mL, 3 min): 2.35
- pH (120 mg per 500 mL, 4 min): 2.44
- pH (120 mg per 500 mL, 5 min): 2.52
- pH (120 mg per 500 mL, 6 min): 2.57
- pH (120 mg per 500 mL, 7 min): 2.59
- pH (120 mg per 500 mL, 8 min): 2.59
- pH (120 mg per 500 mL, 9 min): 2.59
- pH (120 mg per 500 mL, 10 min): 2.59
- pH (120 mg per 500 mL, 20 min): 2.60
- effect on pH of the solution (160 mg/320 ml (0.5 mg/ml)): rapidly raised the pH of the solution to neutral or higher
- pH (180 mg per 500 mL, 2 min): 2.56
- pH (180 mg per 500 mL, 3 min): 3.09
- pH (180 mg per 500 mL, 4 min): 3.90
- pH (180 mg per 500 mL, 5 min): 5.69
- pH (180 mg per 500 mL, 6 min): 6.28
- pH (180 mg per 500 mL, 7 min): 6.64
- pH (180 mg per 500 mL, 8 min): 7.01
- pH (180 mg per 500 mL, 9 min): 7.61
- pH (180 mg per 500 mL, 10 min): 8.25
- pH (180 mg per 500 mL, 20 min): 9.07
- pH (200 mg per 500 mL, 2 min): 2.48
- pH (200 mg per 500 mL, 3 min): 2.81
- pH (200 mg per 500 mL, 4 min): 3.54
- pH (200 mg per 500 mL, 5 min): 5.42
- pH (200 mg per 500 mL, 6 min): 6.63
- pH (200 mg per 500 mL, 7 min): 7.99
- pH (200 mg per 500 mL, 8 min): 8.86
- pH (200 mg per 500 mL, 9 min): 9.07
- pH (200 mg per 500 mL, 10 min): 9.18
- pH (200 mg per 500 mL, 20 min): 9.41
- pH (240 mg per 500 mL, 2 min): 2.54
- pH (240 mg per 500 mL, 3 min): 3.14
- pH (240 mg per 500 mL, 4 min): 5.90
- pH (240 mg per 500 mL, 5 min): 7.73
- pH (240 mg per 500 mL, 6 min): 9.09
- pH (240 mg per 500 mL, 7 min): 9.35
- pH (240 mg per 500 mL, 8 min): 9.47
- pH (240 mg per 500 mL, 9 min): 9.54
- pH (240 mg per 500 mL, 10 min): 9.59
- pH (240 mg per 500 mL, 20 min): 9.71
- pH of the solution (all tested amounts, over the times tested): above 2.0

SMILES: CNC[C@H](O)[C@@H](O)[C@H](O)[C@H](O)CO [Meglumine, meglumine]
- pH (120 mg in 200 ml, 10 min): 2.16
- pH (120 mg in 200 ml, 20 min): 2.16
- pH (120 mg in 200 ml, 30 min): 2.16
- pH (120 mg in 200 ml, 40 min): 2.16
- pH (120 mg in 200 ml, 50 min): 2.16
- pH (120 mg in 200 ml, 60 min): 2.16

SMILES: CCCCCCCCCCCCOS(=O)(=O)[O-].[Na+] [sodium lauryl sulfate]
- pH (10 mg (10.22 mg actual) in 200 ml, 0 min): 2.67
- pH (10 mg (10.22 mg actual) in 200 ml, 1 min): 2.68
- pH (10 mg (10.22 mg actual) in 200 ml, 2 min): 2.68
- pH (10 mg (10.22 mg actual) in 200 ml, 3 min): 2.68
- pH (10 mg (10.22 mg actual) in 200 ml, 4 min): 2.67
- pH (10 mg (10.22 mg actual) in 200 ml, 5 min): 2.67
- pH (10 mg (10.22 mg actual) in 200 ml, 6 min): 2.67
- pH (10 mg (10.22 mg actual) in 200 ml, 7 min): 2.67
- pH (10 mg (10.22 mg actual) in 200 ml, 8 min): 2.67
- pH (10 mg (10.22 mg actual) in 200 ml, 9 min): 2.67
- pH (10 mg (10.22 mg actual) in 200 ml, 10 min): 2.67
- pH (10 mg (10.22 mg actual) in 200 ml, 20 min): 2.67
- pH (10 mg (10.22 mg actual) in 200 ml, 30 min): 2.67
- effect on pH of the solution (10 mg in 200 ml, 30 minute timecourse): insufficient to substantially raise the pH of the solution

SMILES: Cl.N=C(N)NCCC[C@H](N)C(=O)O [Arginine HCl, L-arginine-HCl]
- pH (100 mg in 200 ml, 10 min): 2.20
- pH (100 mg in 200 ml, 20 min): 2.20
- pH (100 mg in 200 ml, 30 min): 2.20
- pH (100 mg in 200 ml, 40 min): 2.20
- pH (100 mg in 200 ml, 50 min): 2.20
- pH (100 mg in 200 ml, 60 min): 2.20

Reference: patent publication US9700516B2, “Compositions and methods for reducing overdose” (priority 2014, dated 2017)
